This is an account of results in ChEMBL document CHEMBL5303711, “ECBD screening data for assay EOS300108” (2023).

Structures can show the parent of a compound that is named as a salt. Calls of active or inactive are those of the source. The rule behind the calls is not given here.

The nature of the data set: Cytotoxicity activity against human HepG2 cells assessed by CellTiter-Glo luminescent cell viability assay. Details: assay stage confirmatory assay, source tissue liver. It is filed as toxicity, cell-based. The settings on record: HepG2 cells, read-out: IC50 relative. Background: Cellular ATP, detected with luciferase, serves as a proxy for viable cell number.
For the molecule `CN(C)CCCN1c2ccccc2Sc2ccc(Cl)cc21` [CHLORPROMAZINE HYDROCHLORIDE], the CC50 is 5.4 µM (active).
With `N#CN=C(NCCCCCCOc1ccc(Cl)cc1)Nc1ccncc1` [CHS-828], the CC50 was 0.1 µM (active).
The result for `O=C(NOCC1CC1)c1ccc(F)c(F)c1Nc1ccc(I)cc1Cl` [CI-1040] reads 0.3 µM (active).
The result for `C[C@@H](NCCCc1cccc(C(F)(F)F)c1)c1cccc2ccccc12` [CINACALCET HYDROCHLORIDE] reads 5.1 µM (active); that for `C[C@H]1Cc2c([nH]c3cc(Cl)c(F)cc23)[C@@]2(N1)C(=O)Nc1ccc(Cl)cc12` [CIPARGAMIN], 10.8 µM (active); that for `COc1cc(N)c(Cl)cc1C(=O)NC1CCN(CCCOc2ccc(F)cc2)CC1OC` (stereo not given) [CISAPRIDE MONOHYDRATE], 38 µM (inactive).
`O=C(CCCCCCNC(=O)c1cnc(N(c2ccccc2)c2ccccc2Cl)nc1)NO` [CITARINOSTAT]: the CC50 is 3 µM (active).
The result for `CN1CCC[C@@H]1CCO[C@](C)(c1ccccc1)c1ccc(Cl)cc1` [CLEMASTINE FUMARATE] reads 5.4 µM (active).
As for `CN(C)CCCN1c2ccccc2CCc2ccc(Cl)cc21` [CLOMIPRAMINE HYDROCHLORIDE], the CC50 was 6.5 µM (active).
For `COc1ccc(/C=C\c2cc(OC)c(OC)c(OC)c2)cc1O` [COMBRETASTATIN A4], the CC50 is 1.4 µM (inactive).
Turning to `CC1(COc2ccc3c(c2)ncn3-c2ccc3cccc(N4CCC(N)CC4)c3n2)COC1` [CRENOLANIB], the CC50 is 4.4 µM (active).
As for `C[C@@H](Oc1cc(-c2cnn(C3CCNCC3)c2)cnc1N)c1c(Cl)ccc(F)c1Cl` [CRIZOTINIB], the CC50 is 2.8 µM (active).
With `C[C@H]1COC2=C1C(=O)C(=O)c1c2ccc2c1CCCC2(C)C` [CRYPTOTANSHINONE] the figure was 3.1 µM (active); with `C#Cc1cccc(Nc2ncnc3cc(OC)c(OCCCCCCC(=O)NO)cc23)c1` [CUDC-101], 0.5 µM (active).
For the molecule `C[C@@H]1C[C@@H]([C@H](O)CC2CC(=O)NC(=O)C2)C(=O)[C@@H](C)C1` [CYCLOHEXIMIDE], the CC50 is 0.4 µM (active).
Turning to `CCCCCCOC(=O)NC(=N)c1ccc(NCc2nc3cc(C(=O)N(CCC(=O)OCC)c4ccccn4)ccc3n2C)cc1` [DABIGATRAN ETEXILATE MESYLATE], the CC50 was 10.2 µM (active).
Take `CC(C)(C)c1nc(-c2cccc(NS(=O)(=O)c3c(F)cccc3F)c2F)c(-c2ccnc(N)n2)s1` [DABRAFENIB]: the CC50 was 3.1 µM (active).
For `COc1cc2ncnc(Nc3ccc(F)c(Cl)c3)c2cc1NC(=O)/C=C/CN1CCCCC1` [DACOMITINIB ANHYDROUS], the CC50 was 6.5 µM (active).
The result for `Cn1c(=O)n(-c2ccc(C(C)(C)C#N)cc2)c2c3cc(-c4cnc5ccccc5c4)ccc3ncc21` [DACTOLISIB TOSYLATE] reads 0.1 µM (active); that for `Cc1cc(C)c(Nc2ccnc(Nc3ccc(C#N)cc3)n2)c(C)c1` [DAPIVIRINE], 6.5 µM (active).
With `CN(C)[C@@H](CCOc1cccc2ccccc12)c1ccccc1` [DAPOXETINE HYDROCHLORIDE] the figure was 6.3 µM (active); with `CCN(CC)CCN(Cc1ccc(-c2ccc(C(F)(F)F)cc2)cc1)C(=O)Cn1c(SCc2ccc(F)cc2)nc(=O)c2c1CCC2` [DARAPLADIB], 1.5 µM (active); with `NC(=O)C(c1ccccc1)(c1ccccc1)[C@@H]1CCN(CCc2ccc3c(c2)CCO3)C1` [DARIFENACIN HYDROBROMIDE], 11.1 µM (active).
Regarding `COc1cccc2c1C(=O)c1c(O)c3c(c(O)c1C2=O)C[C@@](O)(C(C)=O)C[C@@H]3O[C@H]1C[C@H](N)[C@H](O)[C@H](C)O1` [DAUNORUBICIN HYDROCHLORIDE], the CC50 is 0.3 µM (active).
The result for `CNC(=O)c1ccc(Nc2ncc(C(F)(F)F)c(NCc3nccnc3N(C)S(C)(=O)=O)n2)cc1` [DEFACTINIB] reads 1.4 µM (inactive).
